The values below come from patent publication US20250255829A1, “Multifunctional Nanoparticles and Uses in Managing Cancer and Cardiovascular Diseases” (Emory University, priority 2022, published 2025).

For one series, the system named is atherosclerotic plaques. As to the kind of experiment: Atherosclerotic plaque quantification from H&E stained aorta sections. In kind it is in vivo, Apoe−/− mice. Conditions: for volumes of atherosclerotic plaques: 5 mg/kg study. Here is the method: Apoe−/−mice bearing dual diseases received the treatment. After surgical resection of the primary tumors, tumor recurrence and mouse survival were monitored. Mice with tumor recurrence and reached the endpoint were sacrificed. Aorta tissues of the mice were collected at the time point. Serial frozen tissue sections were cut throughout the tissue blocks and stained with H&E. Size of plaques in all arteries of each of the H&E stained tissue sections were measured and total size of the plaques from eight tissue sections of each mouse was compared with the mean of the total plaque area of the no treatment control (100%). For PD1Y-HANP/Ava group that sacrificed at 120 days, an additional no treatment group that was time equivalent was used as a control for the progression of atherosclerosis.
Apoe−/−mice bearing subcutaneous mouse colon tumors were treated with different reagents every 3-4 days for three treatments. Three days following the last treatment, all mice were sacrificed, and aorta arteries were collected. Plaque volumes were quantified from serial H&E tissue sections. During 12 days of treatment, PD1Y-HANP/Avasimibe treated mice had 56% reduction of the total plaque volume in the dual disease mouse model.
Following treatments and by the end of the survival study, the aorta tissues were collected.
In order to enhance the therapeutic effect a combination of PD-L1 targeted delivery of HANP/Avasimibe was tested with uPAR targeted delivery of SN38 (7-Ethyl-10-hydroxycamptothecin), which is an active metabolite of irinotecan that is commonly used for the treatment of colon cancer. […] The effect of ATFmmp14-HANP/SN38 alone or in combination with PD1Y-HANP/Avasimibe at 5 mg/kg of Avasimibe and PD1Y peptide dose/injection was examined in a dual mouse colon cancer and atherosclerosis model. […] Significant reductions of the volumes of atherosclerotic plaques in all treatment groups were detected.

Series [1] is described as follows: Intratumoral delivery in colon PDX tumors. The format is in vivo. Conditions: colon PDX tumors in NSG mice. The text has this: (§1) A uPAR targeted stroma-penetrating ligand (ATFmmp14) was developed containing the amino terminal fragment of uPA fused with the catalytic domain of MMP14. […] ATFmmp14 targets to tumor stromal fibroblasts and macrophages and MMP14 digests extracellular matrixes. […] Without PD1Y or ATFmmp14 conjugation, lower levels of HANP/Avasimibe were present in tumors and atherosclerotic plaques. Thus, uPAR targeted ATF or ATFmmp14 conjugated PD1Y-HANP/Avasimibe enhances delivery efficiency in both plaques and tumors in dual disease mouse model or PDX model.

The nature of series [2]: Targeted delivery by NIR optical imaging and NIR fluorescence microscopy. In kind it is in vivo, Apoe−/− mice. Conditions: systemic (i.v.) delivery, 48 hrs. Here is the method:
Apoe^−/− (Apo E gene knock-out) mouse is a commonly used mouse model for atherosclerosis. […] Apoe^−/− mice developed s.c. tumors within 2-3 weeks and extensive atherosclerosis were found in the aortas, especially in the aorta arching. Targeted delivery of PD1Y-HANPs into tumors and atherosclerotic plaques is mediated by targeting PD-L1 (PD1Y) and CD44 (HANP) expressed in both tissues. To determine efficiency of targeted delivery, NIR 830 dye labeled-PD1Y-HANPs were injected i.v. into Apoe^−/− mice bearing mouse colon tumors. […] Histological analysis of H&E stained tissue sections using NIR fluorescence microscopy (Keyence) confirmed HANP signals in the plaques. PD1Y-HANPs were found as clusters in the stromal and tumor areas, with a higher level in necrotic tumor regions.
as §1

For series [3], the system named is MC38 mouse colon cancer cells. As to the kind of experiment: Cell proliferation assay. The format is cell-based. The following applies: MC-38, read-out: IC50, inhibition of tumor cell proliferation. The text has this:
Hydrophobic 5β-cholanic acid was conjugated to HA (HACA) to promote self-assembly and assist in loading of hydrophobic drug molecule avasimibe (Ava). HANP/Ava is produced by self-assembling of HACA and avasimibe using a high-pressure homogenizer. Amount of encapsulated avasimibe could reach to 20% (w/w) in HANP/Ava. PD1Y-HANP/Ava was produced by conjugating chemically synthesized PD1Y peptides, mediated by cysteine of PD1Y and maleimide of a short-PEG (12×) linker (FIG. 1B). A ratio of PD1Y to HANP at 17:1 was used. If a high concentration of PD1Y peptides will be needed for improvement of immune checkpoint inhibition, the amount of PD1Y peptides could be further increased up to 200 peptides per HANP.

Series [4] deals with s.c. mouse colon tumors (MC38). As to the kind of experiment: Tumor growth in dual colon cancer and atherosclerosis mouse model. The format is in vivo, Apoe−/− mice. The following applies: dual disease model. On the procedure: Apoe^−/− mice on a high fat diet carrying s.c. mouse colon tumors (a dual disease model) received five i.v. treatments, once every three days, of 10 mg/kg of avasimibe or equivalent PD1Y-HANP/avasimibe, 10 mg/kg of PD1Y peptide equivalent of PD1Y-HANP or PD1Y. Residual tumors were surgically resected 6 days by surgery after the last therapy. Tumors were weighted.
Apoe−/−mice bearing s.c. MC38 tumors received i.v. treatments of 5 mg/kg of Avasimibe, 5 mg/kg of PD1Y peptide, or […] of SN38 equivalent dose of free drugs or nanoparticle drugs.
MC38 tumor specific IgG antibodies were detected in the mouse serum following PD1Y-HANP/Avasimibe treatment. […]
Apoe^−/− (Apo E gene knock-out) mouse is a commonly used mouse model for atherosclerosis. […] Histological analysis of H&E stained tissue sections using NIR fluorescence microscopy (Keyence) confirmed HANP signals in the plaques. […]
In order to enhance the therapeutic effect a combination of PD-L1 targeted delivery of HANP/Avasimibe was tested with uPAR targeted delivery of SN38 (7-Ethyl-10-hydroxycamptothecin), which is an active metabolite of irinotecan that is commonly used for the treatment of colon cancer. […] Significant reductions of the volumes of atherosclerotic plaques in all treatment groups were detected.

For the compound `CCc1c2c(nc3ccc(O)cc13)-c1cc3c(c(=O)n1C2)COC(=O)[C@]3(O)CC` [SN38, 7-Ethyl-10-hydroxycamptothecin], the “volumes of atherosclerotic plaques” value in the series on atherosclerotic plaques is “decreased”.
For the compound “ATFmmp14: amino terminal fragment of uPA fused with the catalytic domain of MMP14; uPAR targeted stroma-penetrating ligand”, the intratumoral delivery result in series [1] is “high level of intratumoral delivery”. The “delivery into tumors and atherosclerotic plaques” value in series [2] is given as “high delivery efficiency”.
For `CC(C)c1cc(C(C)C)c(CC(=O)NS(=O)(=O)Oc2c(C(C)C)cccc2C(C)C)c(C(C)C)c1` [avasimibe], the IC50 in series [3] turned out to be 28 µM. The “volumes of atherosclerotic plaques” value in the series with atherosclerotic plaques is recorded as “decreased”. Moreover, the “amount of the plaques (in words)” value in the series with atherosclerotic plaques (following treatments and by the end of the survival study) is “significantly decreased”.
For “NWNRLSPSNQTEKQAAPHHHHCGAISLHPKAKIEE [Unconjugated PD1Y peptide]”, the therapeutic efficacy entry in series [4] is “did not show therapeutic efficacy”.
